{"source": "patent US20230398137A1", "about": "“METHODS FOR LOWERING HBA1C LEVEL WITH A COMBINATION OF A BET BROMODOMAIN INHIBITOR AND A SODIUM DEPENDENT GLUCOSE TRANSPORT 2 INHIBITOR” (Resverlogix Corp., priority 2020, published 2023)", "key": {"HbA1c [1]": {"tested_on": "HbA1c", "settings": "over the duration of the trial; 95% CI −0.61 to −0.56; p<0.001; cited from earlier work"}, "HbA1c [2]": {"tested_on": "HbA1c", "settings": "T2DM and albuminuric CKD, cited from earlier work"}, "HbA1c [3]": {"tested_on": "HbA1c", "settings": "cited from earlier work"}, "HbA1c [4]": {"tested_on": "HbA1c", "test": "BETonMACE Phase 3 trial (NCT02586155), post-hoc analysis of HbA1c from baseline to last visit on treatment (LVT)", "assay_type": "in vivo, human", "experimental": "Apabetalone (RVX-208) was evaluated in a recently completed clinical Phase 3 trial (BETonMACE; NCT02586155) for the effect on MACE in type 2 diabetes patients with low HDL cholesterol (below 40 mg/dL for males and below 45 mg/dL for females) and a recent acute coronary syndrome (ACS) (preceding 7-90 days). All patients received high intensity statin treatment or maximum tolerated statin treatment, which was 20-40 mg daily or a maximum daily dose of 40 mg for rosuvastatin or 40-80 mg daily or a maximum daily dose of 80 mg for atorvastatin.\nPatients (n=2425) with ACS in the preceding 7 to 90 days, with type 2 diabetes and low HDL cholesterol (≤40 mg/dl for men, ≤45 mg/dl for women), receiving intensive or maximum-tolerated therapy with atorvastatin or rosuvastatin, were assigned in double-blind fashion to receive apabetalone 100 mg orally twice daily or matching placebo.\nSpecifically, a total of 150 patients received both RVX-208 and an SGLT2 inhibitor; a total of 148 received an SGLT2 inhibitor, but no RVX-208; a total of 1062 received RVX-208, but no SGLT2 inhibitor; a total of 1058 received neither RVX-208 or an SGLT2 inhibitor.\nPatients who were randomized and received at least one dose of SGLT2 treatment while actively receiving study drug (RVX-208 or placebo) were counted as those receiving a combination of SGLT2 treatment with either RVX-208 or placebo. Patients receiving more than one drug therapy within the SGLT2 inhibitor class were counted only once based upon whichever drug therapy patients continued taking at the end of treatment with study drug (RVX-208 or placebo). In cases where patients were receiving more than one drug therapy within the SGLT2 inhibitor class at the end of treatment with study drug, whichever SGLT2 inhibitor therapy was received for longer was counted.\nThe last visit on treatment (LVT) timepoint represented the longest study exposure duration for patients receiving RVX-208 or placebo with and without SGLT2 inhibitors and is the focus of this analysis."}}, "note": "Where two headings read alike, the source gives them in different places."}
{"smiles": "Cc1ccc([C@@H]2O[C@H](CO)[C@@H](O)[C@H](O)[C@H]2O)cc1Cc1ccc(-c2ccc(F)cc2)s1", "note": "[canagliflozin]", "values": [{"measurement": "mean difference in HbA1c between drug group and placebo group", "setting": "HbA1c [1]", "value": "−0.58", "unit": "%"}, {"measurement": "least-squares mean level of HbA1c lower than in the placebo group by", "setting": "HbA1c [2]; at 13 weeks, 95% CI 0.26 to 0.37", "value": 0.31, "unit": "%"}, {"measurement": "overall mean difference in the reduction of HbA1c versus placebo", "setting": "HbA1c [2]; throughout the trial, 95% CI 0.20 to 0.31", "value": 0.25, "unit": "%"}]}
{"smiles": "OC[C@H]1O[C@@H](c2ccc(Cl)c(Cc3ccc(O[C@H]4CCOC4)cc3)c2)[C@H](O)[C@@H](O)[C@@H]1O", "note": "[empagliflozin]", "values": [{"measurement": "reduction of HbA1c compared to placebo (adjusted mean difference)", "setting": "HbA1c [3]; 10-mg group, after 12 weeks, 95% CI −0.58 to −0.49", "value": 0.54, "unit": "%"}, {"measurement": "adjusted mean difference in HbA1c levels versus placebo", "setting": "HbA1c [3]; 10-mg group, week 94, 95% CI −0.48 to −0.36", "value": "−0.42", "unit": "%"}, {"measurement": "adjusted mean difference in HbA1c levels versus placebo", "setting": "HbA1c [3]; 10-mg group, week 206, 95% CI −0.40 to −0.08", "value": "−0.24", "unit": "%"}, {"measurement": "adjusted mean difference in HbA1c compared to placebo", "setting": "HbA1c [3]; 25-mg group, after 12 weeks, 95% CI −0.64 to −0.55", "value": "−0.60", "unit": "percentage points"}, {"measurement": "adjusted mean difference in HbA1c levels versus placebo", "setting": "HbA1c [3]; 25-mg group, week 94, 95% CI −0.54 to −0.41", "value": "−0.47", "unit": "%"}, {"measurement": "adjusted mean difference in HbA1c levels versus placebo", "setting": "HbA1c [3]; 25-mg group, week 206, 95% CI −0.51 to −0.20", "value": "−0.36", "unit": "%"}]}
{"smiles": "COc1cc(OC)c2c(=O)[nH]c(-c3cc(C)c(OCCO)c(C)c3)nc2c1", "note": "[RVX-208, 2-(4-(2-hydroxyethoxy)-3,5-dimethylphenyl)-5,7-dimethoxyquinazolin-4(3H)-one]", "values": [{"measurement": "ability to reduce levels of HbA1c (in words)", "setting": "HbA1c [4]; T2DM patients with a recent ACS", "value": "did not demonstrate the ability to statistically reduce levels of HbA1c"}, {"measurement": "median HbA1c at baseline", "setting": "HbA1c [4]; T2DM patients with low HDL cholesterol and recent ACS on high intensity or maximum tolerated statin, baseline value of the group", "value": 7.3, "unit": "%"}, {"measurement": "median HbA1c at the last visit on treatment (LVT)", "setting": "HbA1c [4]; T2DM patients with recent ACS on statin, apabetalone 100 mg orally twice daily where given, median time to LVT about 2 years", "value": 7.3, "unit": "%"}, {"measurement": "median change of HbA1c from baseline to LVT", "setting": "HbA1c [4]; T2DM patients with recent ACS, FIG. 3", "value": "+0.20%"}, {"measurement": "mean change of HbA1c from baseline to LVT", "setting": "HbA1c [4]; T2DM patients with recent ACS, FIG. 4", "value": "+0.22%"}]}
